Here are results for ten compounds from ChEMBL document CHEMBL5465560, “Selectivity Literature for EUbOPEN Chemogenomic Library” (2024).

Experiment [1] addresses Serine/threonine-protein kinase Nek7 (Homo sapiens) (UniProt Q8TDX7). The experiment can be described thus: Selectivity interaction (Kinase panel (KiNativ target engagement assay in Jurkat cells)) EUB0001635a NEK7. Format: cell-based. The note with it: Selectivity number of off-targets 0.0, Selectivity number of targets 233.0, Source Knowledge https://www.sciencedirect.com/science/article/pii/S2451945619300674?via%3Dihub, at 1 µM.

Experiment [2] addresses Calcium/calmodulin-dependent protein kinase type II subunit delta (Homo sapiens) (UniProt Q13557). Nature of the experiment: Selectivity interaction (Ambit KINOMEscan and KiNATiv profiling in Jurkat cells) EUB0000090b CAMK2D. Format: cell-based. The note with it: at 1 µM.
Experiment [3] concerns the target T1, Serine/threonine-protein kinase D1 (Homo sapiens) (UniProt Q15139).
T1 sequence (whole entry): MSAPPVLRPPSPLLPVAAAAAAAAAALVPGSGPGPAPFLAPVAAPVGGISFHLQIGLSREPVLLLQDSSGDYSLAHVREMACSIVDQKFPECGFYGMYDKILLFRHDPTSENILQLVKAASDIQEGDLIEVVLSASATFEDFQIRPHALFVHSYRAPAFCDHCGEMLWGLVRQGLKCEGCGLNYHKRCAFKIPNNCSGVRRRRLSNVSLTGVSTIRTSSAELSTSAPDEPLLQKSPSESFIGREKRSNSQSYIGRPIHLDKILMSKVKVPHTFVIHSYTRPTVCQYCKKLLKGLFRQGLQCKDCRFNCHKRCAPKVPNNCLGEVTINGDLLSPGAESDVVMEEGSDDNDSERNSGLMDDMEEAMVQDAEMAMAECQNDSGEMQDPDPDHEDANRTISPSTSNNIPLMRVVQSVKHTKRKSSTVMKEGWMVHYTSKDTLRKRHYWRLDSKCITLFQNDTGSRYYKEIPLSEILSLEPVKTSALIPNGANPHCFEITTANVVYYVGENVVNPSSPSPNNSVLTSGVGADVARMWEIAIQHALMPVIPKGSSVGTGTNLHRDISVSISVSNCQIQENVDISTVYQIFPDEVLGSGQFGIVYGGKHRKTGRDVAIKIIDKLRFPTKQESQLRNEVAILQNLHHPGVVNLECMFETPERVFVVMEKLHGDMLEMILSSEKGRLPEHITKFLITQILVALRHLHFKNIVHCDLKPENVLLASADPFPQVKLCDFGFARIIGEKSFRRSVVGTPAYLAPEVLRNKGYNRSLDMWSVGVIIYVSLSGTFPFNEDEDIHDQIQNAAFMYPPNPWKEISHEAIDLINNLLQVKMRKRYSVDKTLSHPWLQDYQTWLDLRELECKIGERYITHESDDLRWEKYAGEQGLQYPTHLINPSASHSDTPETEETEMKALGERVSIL
The experiment can be described thus: Selectivity interaction (SelectScreen profiling (Invitrogen)) EUB0000607a PRKD1. To be noted: at 2 µM.

Experiment [4] deals with Mitogen-activated protein kinase kinase kinase 1 (Homo sapiens, UniProt Q13233). The experiment can be described thus: Selectivity interaction (KinomeScan (DiscoverX)) EUB0000666a MAP3K1. To be noted: at 10 µM.
Experiment [5] addresses Serine/threonine-protein kinase 10 (Homo sapiens) (UniProt O94804). Nature of the experiment: Selectivity interaction (ActivX KiNativ screen (kinase selectivity in THP-1 cell lysates)) EUB0000639a STK10. Format: subcellular. The note with it: lysate.
Experiment [6] deals with Serine/threonine-protein kinase MRCK beta (Homo sapiens) (UniProt Q9Y5S2). Nature of the experiment: Selectivity interaction (KinomeScan (DiscoverX)) EUB0000695a CDC42BPB. To be noted: at 100 nM.
The target of experiment [7] is T2, Gamma-aminobutyric acid receptor subunit alpha-1 (Homo sapiens) (UniProt P14867).
T2 sequence (whole entry): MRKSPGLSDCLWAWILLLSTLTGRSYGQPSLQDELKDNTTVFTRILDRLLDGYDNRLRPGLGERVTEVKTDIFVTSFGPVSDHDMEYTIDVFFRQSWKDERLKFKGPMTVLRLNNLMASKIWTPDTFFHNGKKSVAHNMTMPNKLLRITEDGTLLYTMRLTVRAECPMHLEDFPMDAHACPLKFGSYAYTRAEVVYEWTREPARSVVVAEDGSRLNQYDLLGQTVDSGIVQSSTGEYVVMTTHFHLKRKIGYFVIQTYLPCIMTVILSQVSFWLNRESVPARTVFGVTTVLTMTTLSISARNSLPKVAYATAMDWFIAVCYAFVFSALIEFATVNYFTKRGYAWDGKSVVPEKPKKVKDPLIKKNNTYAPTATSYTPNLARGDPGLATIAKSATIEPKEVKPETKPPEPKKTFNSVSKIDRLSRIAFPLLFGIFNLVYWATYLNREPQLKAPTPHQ
Nature of the experiment: Selectivity interaction (Eurofins CEREP Diversity Profile (receptors and ion channels)) EUB0000279b GABRA1. To be noted: at 10 µM.

Experiment [8] has as its target Receptor tyrosine-protein kinase erbB-3 (Homo sapiens) (UniProt P21860). The experiment can be described thus: Selectivity interaction (KinomeScan (DiscoverX)) EUB0000092b ERBB3. The note with it: at 10 µM.
Experiment [9] deals with T3, Inhibitor of nuclear factor kappa-B kinase subunit beta (Homo sapiens) (UniProt O14920).
T3 sequence (whole entry): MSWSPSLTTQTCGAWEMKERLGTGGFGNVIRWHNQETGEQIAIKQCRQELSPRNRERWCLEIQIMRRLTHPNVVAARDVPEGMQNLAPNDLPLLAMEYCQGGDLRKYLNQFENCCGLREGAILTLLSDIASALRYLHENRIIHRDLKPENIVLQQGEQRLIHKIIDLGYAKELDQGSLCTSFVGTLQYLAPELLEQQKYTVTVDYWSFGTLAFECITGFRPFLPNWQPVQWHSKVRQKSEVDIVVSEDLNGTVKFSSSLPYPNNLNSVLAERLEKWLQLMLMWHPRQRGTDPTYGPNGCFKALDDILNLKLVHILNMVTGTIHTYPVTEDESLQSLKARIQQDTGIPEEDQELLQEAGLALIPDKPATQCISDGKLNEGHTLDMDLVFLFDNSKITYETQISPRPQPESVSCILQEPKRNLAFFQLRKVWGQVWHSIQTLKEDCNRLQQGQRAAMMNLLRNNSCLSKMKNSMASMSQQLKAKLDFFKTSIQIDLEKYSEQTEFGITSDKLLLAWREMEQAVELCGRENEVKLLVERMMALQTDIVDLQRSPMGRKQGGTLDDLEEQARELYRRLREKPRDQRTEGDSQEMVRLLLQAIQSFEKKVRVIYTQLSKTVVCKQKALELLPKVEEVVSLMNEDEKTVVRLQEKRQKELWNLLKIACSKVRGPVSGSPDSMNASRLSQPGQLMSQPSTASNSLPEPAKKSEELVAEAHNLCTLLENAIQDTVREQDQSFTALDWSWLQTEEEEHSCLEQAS
The experiment can be described thus: Selectivity interaction (KinomeScan (DiscoverX)) EUB0000045b IKBKB.

The target in experiment [10] is Interleukin-1 receptor-associated kinase 1 (Homo sapiens) (UniProt P51617). The experiment can be described thus: Selectivity interaction (KinomeScan (DiscoverX)) EUB0000595a IRAK1. To be noted: at 10 µM.

Sequence of Serine/threonine-protein kinase 10 (Homo sapiens) (O94804 whole entry, looked up): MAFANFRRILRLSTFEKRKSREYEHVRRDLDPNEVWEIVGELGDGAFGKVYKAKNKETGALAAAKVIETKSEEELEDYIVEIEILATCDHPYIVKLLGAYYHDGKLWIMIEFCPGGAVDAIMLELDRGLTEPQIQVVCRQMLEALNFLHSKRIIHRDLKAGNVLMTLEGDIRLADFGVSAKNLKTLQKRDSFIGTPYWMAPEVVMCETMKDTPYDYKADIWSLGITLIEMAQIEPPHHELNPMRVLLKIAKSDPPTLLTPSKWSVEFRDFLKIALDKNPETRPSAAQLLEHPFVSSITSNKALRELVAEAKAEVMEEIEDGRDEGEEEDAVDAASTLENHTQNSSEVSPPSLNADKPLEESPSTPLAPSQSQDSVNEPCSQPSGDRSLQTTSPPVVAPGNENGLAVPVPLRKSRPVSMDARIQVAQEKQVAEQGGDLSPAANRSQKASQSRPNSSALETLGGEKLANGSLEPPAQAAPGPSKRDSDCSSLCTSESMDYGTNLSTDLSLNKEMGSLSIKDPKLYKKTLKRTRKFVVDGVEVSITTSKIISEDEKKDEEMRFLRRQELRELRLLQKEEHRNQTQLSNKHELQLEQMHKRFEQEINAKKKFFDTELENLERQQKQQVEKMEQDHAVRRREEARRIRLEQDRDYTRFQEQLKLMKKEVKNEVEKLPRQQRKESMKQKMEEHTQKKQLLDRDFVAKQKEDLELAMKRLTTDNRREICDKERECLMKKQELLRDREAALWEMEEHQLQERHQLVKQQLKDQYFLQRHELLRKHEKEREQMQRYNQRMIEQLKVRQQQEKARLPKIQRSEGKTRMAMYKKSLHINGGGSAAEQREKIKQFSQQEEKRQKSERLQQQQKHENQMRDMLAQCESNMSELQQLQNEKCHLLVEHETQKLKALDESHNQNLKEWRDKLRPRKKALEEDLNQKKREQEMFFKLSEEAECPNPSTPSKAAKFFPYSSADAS
Sequence of Serine/threonine-protein kinase Nek7 (Homo sapiens) (Q8TDX7 whole entry, looked up): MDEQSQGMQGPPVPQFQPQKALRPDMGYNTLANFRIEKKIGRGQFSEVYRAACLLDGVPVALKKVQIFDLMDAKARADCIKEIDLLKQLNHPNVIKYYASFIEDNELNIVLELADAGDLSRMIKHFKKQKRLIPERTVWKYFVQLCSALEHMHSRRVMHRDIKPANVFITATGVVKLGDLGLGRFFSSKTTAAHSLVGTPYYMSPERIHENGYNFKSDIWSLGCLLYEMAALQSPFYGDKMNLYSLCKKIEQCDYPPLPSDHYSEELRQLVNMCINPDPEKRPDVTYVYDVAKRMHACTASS
Sequence of Mitogen-activated protein kinase kinase kinase 1 (Q13233 whole entry): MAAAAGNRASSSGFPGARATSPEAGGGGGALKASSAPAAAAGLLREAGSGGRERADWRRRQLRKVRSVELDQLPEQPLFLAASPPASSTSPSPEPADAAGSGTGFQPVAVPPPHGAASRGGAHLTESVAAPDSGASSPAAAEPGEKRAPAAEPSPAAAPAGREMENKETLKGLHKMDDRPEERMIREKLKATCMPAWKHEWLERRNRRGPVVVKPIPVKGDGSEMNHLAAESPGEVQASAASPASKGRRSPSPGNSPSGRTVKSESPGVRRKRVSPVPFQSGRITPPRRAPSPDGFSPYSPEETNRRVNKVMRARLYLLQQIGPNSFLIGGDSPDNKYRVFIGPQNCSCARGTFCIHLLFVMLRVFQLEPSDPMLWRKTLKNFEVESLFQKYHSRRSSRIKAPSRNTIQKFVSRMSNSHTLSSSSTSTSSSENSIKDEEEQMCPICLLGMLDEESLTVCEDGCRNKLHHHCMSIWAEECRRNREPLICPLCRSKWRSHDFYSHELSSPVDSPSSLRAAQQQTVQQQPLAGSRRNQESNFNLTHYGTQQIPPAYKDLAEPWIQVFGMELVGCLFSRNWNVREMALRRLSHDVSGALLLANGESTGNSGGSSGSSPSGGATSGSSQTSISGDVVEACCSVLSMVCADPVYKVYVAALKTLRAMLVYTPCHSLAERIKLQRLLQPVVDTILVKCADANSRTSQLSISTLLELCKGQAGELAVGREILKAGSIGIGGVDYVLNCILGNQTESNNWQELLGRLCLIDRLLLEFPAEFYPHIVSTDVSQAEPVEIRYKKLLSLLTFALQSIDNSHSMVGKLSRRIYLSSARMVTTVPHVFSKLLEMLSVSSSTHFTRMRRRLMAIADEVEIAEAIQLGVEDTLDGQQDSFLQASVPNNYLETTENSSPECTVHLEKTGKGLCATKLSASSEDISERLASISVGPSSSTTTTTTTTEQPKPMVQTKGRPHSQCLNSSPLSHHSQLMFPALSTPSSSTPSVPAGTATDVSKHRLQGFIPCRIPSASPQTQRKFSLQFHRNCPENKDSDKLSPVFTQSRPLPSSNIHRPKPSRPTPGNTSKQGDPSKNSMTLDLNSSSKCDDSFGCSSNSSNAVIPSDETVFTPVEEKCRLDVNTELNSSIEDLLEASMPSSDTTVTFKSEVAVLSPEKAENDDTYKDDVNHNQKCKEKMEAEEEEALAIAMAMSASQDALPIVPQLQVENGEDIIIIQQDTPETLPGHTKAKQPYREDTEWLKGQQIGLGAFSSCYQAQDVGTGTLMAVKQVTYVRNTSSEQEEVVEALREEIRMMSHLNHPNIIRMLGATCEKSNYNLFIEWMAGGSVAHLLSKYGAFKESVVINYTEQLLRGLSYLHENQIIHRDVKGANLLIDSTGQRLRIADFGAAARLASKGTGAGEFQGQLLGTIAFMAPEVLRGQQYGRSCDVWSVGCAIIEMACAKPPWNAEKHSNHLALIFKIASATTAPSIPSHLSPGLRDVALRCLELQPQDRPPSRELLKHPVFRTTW
Sequence of Serine/threonine-protein kinase MRCK beta (Homo sapiens) (Q9Y5S2 whole entry): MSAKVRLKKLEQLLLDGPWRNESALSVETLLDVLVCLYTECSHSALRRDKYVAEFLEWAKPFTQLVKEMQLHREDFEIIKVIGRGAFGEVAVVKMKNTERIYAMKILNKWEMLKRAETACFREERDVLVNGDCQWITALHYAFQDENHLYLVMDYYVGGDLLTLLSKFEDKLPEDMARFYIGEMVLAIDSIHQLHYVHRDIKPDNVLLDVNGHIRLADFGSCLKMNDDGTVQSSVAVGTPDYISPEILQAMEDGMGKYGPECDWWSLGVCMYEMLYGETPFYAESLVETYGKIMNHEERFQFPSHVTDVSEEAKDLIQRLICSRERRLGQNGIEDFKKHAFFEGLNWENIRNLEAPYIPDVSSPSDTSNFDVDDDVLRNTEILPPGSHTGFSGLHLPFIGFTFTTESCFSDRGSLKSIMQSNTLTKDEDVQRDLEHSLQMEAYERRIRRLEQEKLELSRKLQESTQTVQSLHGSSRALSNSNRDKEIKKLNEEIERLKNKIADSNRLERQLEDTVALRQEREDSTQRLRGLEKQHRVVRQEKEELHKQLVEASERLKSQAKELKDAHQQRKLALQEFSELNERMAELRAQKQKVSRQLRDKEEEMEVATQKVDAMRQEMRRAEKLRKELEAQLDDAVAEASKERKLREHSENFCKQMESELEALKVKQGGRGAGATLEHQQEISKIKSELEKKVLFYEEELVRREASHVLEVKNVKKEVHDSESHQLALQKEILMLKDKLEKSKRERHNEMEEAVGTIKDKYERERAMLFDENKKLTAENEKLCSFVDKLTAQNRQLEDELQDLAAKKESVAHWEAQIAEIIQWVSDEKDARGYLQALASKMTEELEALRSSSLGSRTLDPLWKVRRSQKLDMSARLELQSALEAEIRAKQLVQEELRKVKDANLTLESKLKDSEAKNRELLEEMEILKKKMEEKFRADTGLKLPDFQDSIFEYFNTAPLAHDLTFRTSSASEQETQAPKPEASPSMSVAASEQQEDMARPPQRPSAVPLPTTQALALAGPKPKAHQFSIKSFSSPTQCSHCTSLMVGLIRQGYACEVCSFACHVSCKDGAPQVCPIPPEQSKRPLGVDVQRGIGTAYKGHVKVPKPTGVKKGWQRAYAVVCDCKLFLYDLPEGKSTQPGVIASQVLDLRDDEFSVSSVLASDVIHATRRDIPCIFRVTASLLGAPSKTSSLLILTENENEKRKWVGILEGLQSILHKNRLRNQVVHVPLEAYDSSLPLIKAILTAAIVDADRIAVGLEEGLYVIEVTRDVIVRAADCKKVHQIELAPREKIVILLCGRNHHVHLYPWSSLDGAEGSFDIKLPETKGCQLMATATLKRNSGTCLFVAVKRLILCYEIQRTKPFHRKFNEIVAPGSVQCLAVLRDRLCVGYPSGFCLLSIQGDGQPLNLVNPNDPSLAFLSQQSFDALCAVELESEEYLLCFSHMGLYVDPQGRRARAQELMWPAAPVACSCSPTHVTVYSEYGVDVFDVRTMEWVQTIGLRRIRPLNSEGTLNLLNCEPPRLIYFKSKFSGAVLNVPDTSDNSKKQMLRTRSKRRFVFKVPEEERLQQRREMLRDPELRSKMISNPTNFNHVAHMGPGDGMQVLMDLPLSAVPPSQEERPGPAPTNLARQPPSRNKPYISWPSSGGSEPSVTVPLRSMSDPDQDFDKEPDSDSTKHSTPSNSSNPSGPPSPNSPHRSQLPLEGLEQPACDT
Sequence of Calcium/calmodulin-dependent protein kinase type II subunit delta (Homo sapiens) (Q13557 whole entry): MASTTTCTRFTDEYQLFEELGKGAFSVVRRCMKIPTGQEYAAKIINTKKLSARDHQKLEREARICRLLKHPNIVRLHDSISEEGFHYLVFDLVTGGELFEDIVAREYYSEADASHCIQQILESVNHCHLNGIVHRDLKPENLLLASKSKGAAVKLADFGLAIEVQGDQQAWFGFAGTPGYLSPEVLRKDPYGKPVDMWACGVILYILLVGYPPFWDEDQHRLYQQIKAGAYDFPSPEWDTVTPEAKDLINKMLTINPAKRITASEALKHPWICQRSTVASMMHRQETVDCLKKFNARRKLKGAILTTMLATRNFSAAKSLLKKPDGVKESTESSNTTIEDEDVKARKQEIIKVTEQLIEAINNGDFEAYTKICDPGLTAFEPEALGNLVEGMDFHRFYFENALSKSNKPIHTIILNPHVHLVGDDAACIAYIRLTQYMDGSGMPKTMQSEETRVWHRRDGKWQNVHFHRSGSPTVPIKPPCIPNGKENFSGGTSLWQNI

Take `C=CC(=O)Nc1ccc(C(=O)Nc2[nH]nc3c2CN(C(=O)N[C@H](CN(C)C)c2ccccc2)C3(C)C)cc1`: in experiment [1], the % of engagement was -12.5%.
`CN(C)C/C=C/C(=O)Nc1ccc(C(=O)N2CCCC(Nc3ncc(Cl)c(-c4c[nH]c5ccccc45)n3)C2)cc1` (stereo not given): the % of control in [2] turned out to be 88%.
As for `CNC(=O)Nc1ccc(-c2nc(N3CC4CCC(C3)O4)c3cnn(C4CCC5(CC4)OCCO5)c3n2)cc1`, in [3], the % of inhibition came to 0%.
In experiment [4], `O=C(NOC[C@H](O)CO)c1ccc(F)c(F)c1Nc1ccc(I)cc1F` returned a % of control of 54%.
Take `CC[C@@H]1[C@H](F)C(=O)N[C@@H]1COc1nccc2cc(C(N)=O)c(OC)cc12` [ZIMLOVISERTIB]: the % of inhibition was -11.4% in [5] (at 0.01 µM); -6.2% in experiment [5] (at 0.04 µM); -5.3% in experiment [5] (at 0.2 µM); 2.8% in experiment [5] (at 1 µM); -12.4% in experiment [5] (at 5 µM).
As for `Cc1cc(F)c(C(=O)Nc2cccc(-c3nncn3C(C)C)n2)cc1-n1cnc(C2CC2)c1`, in experiment [6], the % of control worked out at 100%.
`CC(=O)c1cc(-c2ccccc2OCC2CC2)c2ncccn12` returned a % of control in experiment [7] of 103%.
The compound `CCC(=O)N1CCN(c2ccc(-n3c(=O)ccc4cnc5ccc(-c6cnc7ccccc7c6)cc5c43)cc2C(F)(F)F)CC1` returned a % of control in [8] of 44%.
For `C=CC(=O)Nc1cc(-n2c(=O)ccc3cnc4ccc(-c5ccc(NS(C)(=O)=O)cc5)cc4c32)ccc1C`, the figures for the % of control in [9] (at 1 µM) and in [9] (at 10 µM) were 93% and 100%, respectively.
In experiment [10], `COCC(=O)NC/C=C/c1ccc2ncnc(Nc3ccc(Oc4ccc(C)nc4)c(C)c3)c2c1` [CP-724714] came in with a % of control of 100%.
